This note sets out measurements from US9296704B2, “Substituted pyrimidines as protein kinase inhibitors” (CELGENE AVILOMICS RESEARCH, INC., priority 2007, dated 2016).

Each structure is given as a SMILES string.

One test deals with T1, EGFR (WT) (Homo sapiens, UniProt P00533).
T1 construct: purchased Invitrogen PV3872
In words: Omnia continuous-read kinase assay, EGFR (WT). Format: biochemical. As to conditions: read-out: EGFR inhibtion. The source says:
(§1) The protocol below describes continuous-read kinase assays to measure inherent potency of compounds against active forms of EGFR (WT) and EGFR (T790M/L858R) enzymes. The mechanics of the assay platform are best described by the vendor (Invitrogen, Carlsbad, Calif.) on their website at the following URL: http://www.invitrogen.com/content.cfm?pageid=11338 or http://www.invitrogen.com/site/us/en/home/Products-and-Services/Applications/Drug-Discovery/Target-and-Lead-Identification-and-Validation/KinaseBiology/KB-Misc/Biochemical-Assays/Omnia-Kinase-Assays.html.
(§2) Briefly, 10× stocks of EGFR-WT (PV3872) from Invitrogen and EGFR-T790M/L858R (40350) from BPS Bioscience, San Diego, Calif., 1.13×ATP (AS001A) and appropriate Tyr-Sox conjugated peptide substrates (KCZI001) were prepared in 1× kinase reaction buffer consisting of 20 mM Tris, pH 7.5, 5 mM MgCl2, 1 mM EGTA, 5 mM β-glycerophosphate, 5% glycerol (10× stock, KB002A) and 0.2 mM DTT (DS001A). 5 μL of each enzyme were pre-incubated in a Corning (#3574) 384-well, white, non-binding surface microtiter plate (Corning, NY) for 30 min. at 27° C. with a 0.5 μL volume of 50% DMSO and serially diluted compounds prepared in 50% DMSO. Kinase reactions were started with the addition of 45 μL of the ATP/Tyr-Sox peptide substrate mix and monitored every 30-90 seconds for 60 minutes at λex360/λem485 in a Synergy^4 plate reader from BioTek (Winooski, Vt.). At the conclusion of each assay, progress curves from each well were examined for linear reaction kinetics and fit statistics (R^2, 95% confidence interval, absolute sum of squares). Initial velocity (0 minutes to ˜30 minutes) from each reaction was determined from the slope of a plot of relative fluorescence units vs time (minutes) and then plotted against inhibitor concentration to estimate IC50 from log [Inhibitor] vs Response, Variable Slope model in GraphPad Prism from GraphPad Software (San Diego, Calif.).
(§3) The EGFR-WT- and EGFR T790M/L858R-modified optimized reagent conditions are: • [EGFR-WT]=5 nM, [ATP]=[…], [Y12-Sox]=[…]; and [EGFR-T790M/L858R]=3 nM, [ATP]=[…], [Y12-Sox]=[…].

The target of another test is T2, ITK (Homo sapiens, UniProt Q08881).
T2 sequence (Q08881 1-620): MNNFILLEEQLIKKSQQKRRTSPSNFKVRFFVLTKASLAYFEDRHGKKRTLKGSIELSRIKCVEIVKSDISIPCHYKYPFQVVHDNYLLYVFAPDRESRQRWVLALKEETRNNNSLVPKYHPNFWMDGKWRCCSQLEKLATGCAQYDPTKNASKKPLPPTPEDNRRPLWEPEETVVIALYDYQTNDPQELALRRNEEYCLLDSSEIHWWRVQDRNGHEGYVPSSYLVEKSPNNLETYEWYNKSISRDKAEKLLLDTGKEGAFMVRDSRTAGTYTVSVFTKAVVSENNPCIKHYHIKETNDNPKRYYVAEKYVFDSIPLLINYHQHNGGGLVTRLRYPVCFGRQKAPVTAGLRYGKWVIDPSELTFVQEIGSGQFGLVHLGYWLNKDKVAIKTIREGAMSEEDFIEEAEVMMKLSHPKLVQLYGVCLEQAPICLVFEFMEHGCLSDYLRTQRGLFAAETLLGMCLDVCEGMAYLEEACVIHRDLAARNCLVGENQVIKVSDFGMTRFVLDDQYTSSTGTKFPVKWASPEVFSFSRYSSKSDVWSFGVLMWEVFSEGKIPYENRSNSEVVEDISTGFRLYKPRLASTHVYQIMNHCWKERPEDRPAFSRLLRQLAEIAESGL
Put plainly: Omnia assay for potency against ITK. It counts as biochemical. As to conditions: read-out: ITK inhibition.
Source text: as §1, §2
This example describes continuous-read kinase assays to measure inherent potency of compound against active forms of ITK enzymes as described in Example 10 above except that the modified ITK-optimized reagent conditions are: • [ITK]=10 nM, [ATP]=25 μM, [Y6-Sox]=10 μM (ATP KMapp=33 μM).

A further test deals with BTK (Homo sapiens, UniProt Q06187). Put plainly: Omnia assay for potency against BTK. Format: biochemical. The note with it: read-out: BTK Inhibition.
Source text: as §1, §2
The Omnia Assay Protocol for potency assessment against BTK is performed in a substantially similar manner as that described in Example 25 above except that the modified BTK-optimized reagent conditions are: • [BTK]=5 nM, [ATP]=[…], [Y5-Sox]=[…] (ATP KMapp ˜[…]).

In the next test the target is T3, JAK3 (Homo sapiens, UniProt P52333).
T3 sequence (P52333 1-1124): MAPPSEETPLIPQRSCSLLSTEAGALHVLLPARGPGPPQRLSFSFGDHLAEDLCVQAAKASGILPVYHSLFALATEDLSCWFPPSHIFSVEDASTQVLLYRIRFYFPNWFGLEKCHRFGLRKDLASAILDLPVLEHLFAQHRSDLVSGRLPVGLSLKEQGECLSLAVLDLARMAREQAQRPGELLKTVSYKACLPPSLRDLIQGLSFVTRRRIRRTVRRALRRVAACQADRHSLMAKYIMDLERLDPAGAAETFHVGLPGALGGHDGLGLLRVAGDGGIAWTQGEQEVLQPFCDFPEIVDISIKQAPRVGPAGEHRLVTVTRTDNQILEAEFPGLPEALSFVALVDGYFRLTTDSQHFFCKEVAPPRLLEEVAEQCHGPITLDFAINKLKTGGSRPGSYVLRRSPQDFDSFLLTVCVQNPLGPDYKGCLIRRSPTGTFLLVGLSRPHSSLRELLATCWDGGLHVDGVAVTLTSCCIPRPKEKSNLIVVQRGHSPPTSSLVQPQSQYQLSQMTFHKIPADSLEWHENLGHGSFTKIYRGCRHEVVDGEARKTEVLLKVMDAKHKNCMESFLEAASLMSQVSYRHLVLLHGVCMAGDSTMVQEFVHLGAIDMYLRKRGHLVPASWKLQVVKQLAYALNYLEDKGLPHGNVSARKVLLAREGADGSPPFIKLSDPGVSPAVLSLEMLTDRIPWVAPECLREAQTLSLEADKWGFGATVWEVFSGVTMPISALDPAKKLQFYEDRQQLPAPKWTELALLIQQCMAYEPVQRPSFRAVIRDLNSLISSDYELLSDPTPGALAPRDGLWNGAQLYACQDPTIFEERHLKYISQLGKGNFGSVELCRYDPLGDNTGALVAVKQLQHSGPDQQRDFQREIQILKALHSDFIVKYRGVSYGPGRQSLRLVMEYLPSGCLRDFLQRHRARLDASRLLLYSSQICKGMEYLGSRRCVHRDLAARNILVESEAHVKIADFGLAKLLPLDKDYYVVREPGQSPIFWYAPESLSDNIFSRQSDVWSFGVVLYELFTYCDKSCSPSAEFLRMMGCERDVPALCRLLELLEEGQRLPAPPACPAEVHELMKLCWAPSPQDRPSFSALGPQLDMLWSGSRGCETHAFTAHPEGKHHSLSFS
In words: Omnia assay for potency against JAK3. As to conditions: read-out: JAK3 Inhibition. Format: biochemical.
Source text: as §1, §2
The Omnia Assay Protocol for potency assessment against JAK3 is performed in a substantially similar manner as that described in Example 25 above except that the modified JAK3-optimized reagent conditions are: • [JAK3]=5 nM, [ATP]=5 μM, [Y12-Sox]=5 μM (ATP KMapp ˜[…]).

Another test concerns the target T4, EGFR (T790M/L858R) (Homo sapiens, UniProt P00533, L858R/T790M).
T4 construct: purchased BPS Bioscience 40350
Put plainly: Omnia continuous-read kinase assay, EGFR (T790M/L858R). Format: biochemical. As to conditions: read-out: EGFR (T790M/L858R) inhibiton.
Source text: as §1, §2, §3

Another test has as its target ErbB1 (Homo sapiens, UniProt P00533). Put plainly: Z'-LYTE biochemical assay, ErbB1 kinase inhibition. As to conditions: @ 1 μM. The protocol: Compounds of the present invention were assayed as inhibitors of one or more of ErbB1, ErbB2, and/or ErbB4 in a manner substantially similar to the method described by Invitrogen Corp (Invitrogen Corporation, 1600 Faraday Avenue, Carlsbad, Calif., CA; http://www.invitrogen.com/downloads/Z-LYTE_Brochure—1205.pdf) using the Z′-LYTE™ biochemical assay procedure or similar biochemical assay. The Z′-LYTE™ biochemical assay employs a fluorescence-based, coupled-enzyme format and is based on the differential sensitivity of phosphorylated and non-phosphorylated peptides to proteolytic cleavage.

Test [1] has as its system BTK signaling in Ramos cells. In words: BTK Ramos cellular assay (PLCγ2 phosphorylation). As to conditions: Homo sapiens; Ramos cells, PLCγ2 phosphorylation; read-out: BTK Inhibition. Format: cell-based. The protocol:
Compounds 1-13 and (I-52) were assayed in Ramos human Burkitt lymphoma cells. Ramos cells were grown in suspension in T225 flasks, spun down, resuspended in 50 mls serum-free media and incubated for 1 hour. Compound was added to Ramos cells in serum free media to a final concentration of 1, 0.1, 0.01, or 0.001 μM. Ramos cells were incubated with compound for 1 hour, washed again and resuspended in 100 ul serum-free media. Cells were then stimulated with 1 μg of goat F(ab′)2 Anti-Human IgM and incubated on ice for 10 minutes to activate B cell receptor signaling pathways. After 10 minutes, the cells were washed once with PBS and then lysed on ice with Invitrogen Cell Extraction buffer. 16 μg total protein from lysates was loaded on gels and blots were probed for phosphorylation of the BTK substrate PLCγ2. […] Additional dose response inhibition of BTK signaling with I-13 is depicted in FIG. 9.

BTK, sequence (Q06187 whole entry): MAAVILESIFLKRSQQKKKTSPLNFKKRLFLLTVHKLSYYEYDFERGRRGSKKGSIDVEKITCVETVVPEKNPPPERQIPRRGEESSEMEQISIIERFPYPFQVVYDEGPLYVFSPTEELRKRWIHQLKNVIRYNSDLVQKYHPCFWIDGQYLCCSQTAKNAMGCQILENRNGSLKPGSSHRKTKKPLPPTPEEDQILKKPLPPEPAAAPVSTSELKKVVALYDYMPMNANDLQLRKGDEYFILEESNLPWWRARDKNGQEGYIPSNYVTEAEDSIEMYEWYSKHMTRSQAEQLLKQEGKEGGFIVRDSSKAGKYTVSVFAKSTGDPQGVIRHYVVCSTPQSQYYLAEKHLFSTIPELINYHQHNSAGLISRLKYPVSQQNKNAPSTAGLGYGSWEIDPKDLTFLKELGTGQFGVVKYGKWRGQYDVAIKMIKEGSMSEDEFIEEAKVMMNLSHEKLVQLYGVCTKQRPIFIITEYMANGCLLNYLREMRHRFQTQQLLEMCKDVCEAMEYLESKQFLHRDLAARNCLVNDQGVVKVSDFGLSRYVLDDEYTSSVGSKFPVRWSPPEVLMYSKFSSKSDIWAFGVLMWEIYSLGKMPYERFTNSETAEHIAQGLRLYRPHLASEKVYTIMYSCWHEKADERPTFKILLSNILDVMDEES
T1 sequence (P00533 25-1210): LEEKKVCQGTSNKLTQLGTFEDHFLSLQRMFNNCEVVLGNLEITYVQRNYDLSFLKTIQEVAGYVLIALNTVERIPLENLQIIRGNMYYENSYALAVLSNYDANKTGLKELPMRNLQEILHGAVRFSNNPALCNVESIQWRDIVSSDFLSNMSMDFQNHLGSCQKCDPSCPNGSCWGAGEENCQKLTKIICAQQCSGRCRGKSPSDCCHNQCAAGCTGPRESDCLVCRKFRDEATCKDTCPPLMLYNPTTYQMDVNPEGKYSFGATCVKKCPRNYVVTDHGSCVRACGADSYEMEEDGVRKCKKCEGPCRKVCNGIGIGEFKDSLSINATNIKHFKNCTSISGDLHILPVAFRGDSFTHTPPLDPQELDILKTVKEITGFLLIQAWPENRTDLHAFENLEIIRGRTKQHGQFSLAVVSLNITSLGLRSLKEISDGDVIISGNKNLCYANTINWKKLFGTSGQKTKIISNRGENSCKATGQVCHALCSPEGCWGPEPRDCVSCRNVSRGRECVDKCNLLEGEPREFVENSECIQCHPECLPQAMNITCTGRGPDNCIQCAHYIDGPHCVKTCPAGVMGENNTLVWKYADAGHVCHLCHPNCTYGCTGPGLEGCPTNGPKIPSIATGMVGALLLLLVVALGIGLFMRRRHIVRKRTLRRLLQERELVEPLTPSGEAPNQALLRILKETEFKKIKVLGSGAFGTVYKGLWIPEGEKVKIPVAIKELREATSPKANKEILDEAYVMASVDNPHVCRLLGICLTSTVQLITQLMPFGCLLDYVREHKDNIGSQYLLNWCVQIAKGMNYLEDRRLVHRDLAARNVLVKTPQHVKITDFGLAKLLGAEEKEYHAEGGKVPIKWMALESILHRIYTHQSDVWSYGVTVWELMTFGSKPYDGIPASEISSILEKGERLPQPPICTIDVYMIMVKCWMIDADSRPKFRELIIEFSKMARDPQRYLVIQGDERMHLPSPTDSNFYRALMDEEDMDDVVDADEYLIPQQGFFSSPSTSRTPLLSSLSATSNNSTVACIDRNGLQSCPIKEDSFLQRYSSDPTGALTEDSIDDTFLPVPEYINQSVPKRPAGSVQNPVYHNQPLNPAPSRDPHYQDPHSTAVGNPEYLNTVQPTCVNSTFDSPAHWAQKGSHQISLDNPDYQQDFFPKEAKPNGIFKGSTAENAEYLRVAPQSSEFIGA
ErbB1, sequence (P00533 25-1210): as above
T4 sequence (P00533 25-1210 T790M/L858R): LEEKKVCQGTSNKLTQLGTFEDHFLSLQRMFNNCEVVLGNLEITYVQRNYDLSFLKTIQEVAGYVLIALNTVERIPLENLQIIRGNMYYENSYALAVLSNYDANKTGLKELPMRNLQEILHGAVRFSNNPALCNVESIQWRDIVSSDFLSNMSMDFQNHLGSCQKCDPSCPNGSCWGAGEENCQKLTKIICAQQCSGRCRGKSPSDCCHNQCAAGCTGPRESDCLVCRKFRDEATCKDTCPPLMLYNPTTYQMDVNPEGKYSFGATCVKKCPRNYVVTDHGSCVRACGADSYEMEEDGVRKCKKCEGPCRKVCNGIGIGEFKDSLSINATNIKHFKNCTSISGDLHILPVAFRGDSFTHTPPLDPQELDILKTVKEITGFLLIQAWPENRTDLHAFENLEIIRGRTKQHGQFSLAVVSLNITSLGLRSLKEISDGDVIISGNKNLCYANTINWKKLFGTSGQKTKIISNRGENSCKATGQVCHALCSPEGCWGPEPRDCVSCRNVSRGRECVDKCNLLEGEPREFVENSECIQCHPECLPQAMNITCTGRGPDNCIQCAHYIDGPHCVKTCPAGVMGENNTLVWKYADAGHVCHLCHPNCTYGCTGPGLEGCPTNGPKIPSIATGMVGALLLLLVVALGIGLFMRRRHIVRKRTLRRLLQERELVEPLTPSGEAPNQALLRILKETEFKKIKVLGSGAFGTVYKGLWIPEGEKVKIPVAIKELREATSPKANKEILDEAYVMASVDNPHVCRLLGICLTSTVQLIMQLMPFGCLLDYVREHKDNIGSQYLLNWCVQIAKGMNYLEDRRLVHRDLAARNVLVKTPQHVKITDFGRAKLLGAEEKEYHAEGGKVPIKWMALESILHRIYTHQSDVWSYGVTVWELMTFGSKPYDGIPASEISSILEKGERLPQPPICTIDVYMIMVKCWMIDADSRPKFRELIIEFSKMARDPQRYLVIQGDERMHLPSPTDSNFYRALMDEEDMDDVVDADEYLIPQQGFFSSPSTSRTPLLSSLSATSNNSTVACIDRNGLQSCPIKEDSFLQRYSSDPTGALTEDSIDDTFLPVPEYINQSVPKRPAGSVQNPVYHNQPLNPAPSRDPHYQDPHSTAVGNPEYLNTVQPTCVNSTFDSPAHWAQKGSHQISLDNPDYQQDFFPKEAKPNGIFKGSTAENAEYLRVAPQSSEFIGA

On to `CC=CC(=O)c1cccc(Nc2cc(Nc3ccc(Oc4ccccc4)cc3)ncn2)c1` (mixture of isomers) [I-89, (E,Z)-1-(3-(6-(4-phenoxyphenylamino)pyrimidin-4-ylamino)phenyl)but-2-en-1-one], for which the IC50 at EGFR (WT) was at most 10 nM; on ITK it was 100 to 1000 nM; on BTK, at most 10 nM.
As usually defined, the inhibition is the change of the read-out against control, counted positive when it falls. As to `C=CS(=O)(=O)Nc1cccc(Nc2cc(Oc3cccc(C(F)(F)F)c3)ncn2)c1` [I-10], the IC50 is at most 10 nM on EGFR (WT); at least 10000 nM on ITK; 100 to 1000 nM at JAK3; 100 to 1000 nM on BTK; 100 to 1000 nM on EGFR (T790M/L858R). On ErbB1, this compound showed an inhibition at 1 µM of 96%.
Consider `C#Cc1cccc(Nc2cc(Nc3cccc(Br)c3)ncn2)c1` [I-12, N^4-(3-Bromophenyl)-N^6-(3-ethynylphenyl)pyrimidine-4,6-diamine], for which the IC50 at EGFR (WT) was 10 to 100 nM; on JAK3 it was at least 10000 nM; on BTK, at least 10000 nM; at EGFR (T790M/L858R), at least 10000 nM. The compound also gave an inhibition at 1 µM at ErbB1 of 82%.
For `C=CC(=O)Nc1cccc(Nc2cc(N3CCc4ccccc43)ncn2)c1` [I-14], the IC50 is at most 10 nM at EGFR (WT); 1000 to 10000 nM at ITK; at most 10 nM at JAK3; 100 to 1000 nM on BTK; 10 to 100 nM at EGFR (T790M/L858R). The inhibition at 1 µM against ErbB1 turned out to be 96%.
In the case of `C=CC(=O)Nc1cccc(Nc2cc(N(C)c3ccccc3)ncn2)c1` [I-15, N-{3-[6-(N-methyl-N-phenylamino)-pyrimidin-4-ylamino]phenyl}-2 propenamide], the IC50 was at most 10 nM on EGFR (WT); 1000 to 10000 nM on ITK; 10 to 100 nM on JAK3; 10 to 100 nM at BTK; 10 to 100 nM at EGFR (T790M/L858R). The same compound registered an inhibition at 1 µM against ErbB1 of 98%.
As for `C=CC(=O)Nc1cccc(Nc2cc(Oc3cccc(C)c3)ncn2)n1` [I-65)], the IC50 in test [1] is at most 10 nM.
Same read-out and setting: under `C=CC(=O)Nc1cccc(Nc2cc(Oc3ccc(Oc4ccccc4)cc3)ncn2)n1` [I-66)] stands at most 10 nM.
As for `CC#CC(=O)c1cccc(Nc2cc(Nc3ccc(Oc4ccccc4)cc3)ncn2)c1` [I-88, 1-(3-(6-(4-phenoxyphenylamino)pyrimidin-4-ylamino)phenyl)but-2-yn-1-one], the IC50 is at most 10 nM on EGFR (WT), 10 to 100 nM at ITK and at most 10 nM on BTK.
Regarding `C=CC(=O)Nc1cccc(Nc2cc(Oc3cccc(OC)c3)ncn2)n1` [I-90, N-(6-(6-(3-methoxyphenoxy)pyrimidin-4-ylamino)pyridine-2-yl)acrylamide], the IC50 on EGFR (WT) was at most 10 nM; on ITK, 100 to 1000 nM; at BTK it was at most 10 nM.
For the compound `COc1ccc(NC(=O)/C=C/CN(C)CCCCNC(=O)OC(C)(C)C)cc1Nc1cc(Nc2ccc(F)c(Cl)c2)ncn1` [I-98], the IC50 was at most 10 nM at EGFR (WT), at least 10000 nM at ITK and 100 to 1000 nM at BTK.
The matching figures for `C=CC(=O)Nc1cc(Nc2cc(Oc3ccc(Oc4ccccc4)cc3)ncn2)ccc1N1CCOCC1` [I-101, N-(2-morpholino-5-(6-(4-phenoxyphenoxy)pyrimidin-4-ylamino)phenyl)acrylamide]: at most 10 nM, 100 to 1000 nM and at most 10 nM.
